Laboratory results reported in US20110201499A1, “Method of Improving Plant Yield of Soybeans by Treatment with Herbicides” (priority 2010, published 2011).

Test system: Soybean (FG72 trait)
Assay: in-field research trial of herbicidal treatment effect on soybean yield
Format: in vivo
Conditions: isoxaflutole 35 g ai/ha soil treatment pre-emergence, then one application of glyphosate 1060 g ai/ha plus ammonium sulfate 2850 g ai/ha; weed free check = 100%; averaged across four replications; moisture standardized; Fithian, Ill.
Description: Soybean seed was secured for an in-field research trial. The soybean seed is genetically modified to be tolerant to applications of HPPD (4-hydroxyphenyl-pyruvate-dioxygenase) inhibiting herbicides (example: BALANCE PRO or isoxaflutole) and glyphosate (ROUNDUP ORIGINAL MAX). The trait is known as FG72.
The site was conventionally tilled and free of weeds at the time of planting. The soybean seed was planted in 30″ rows on Jun. 18, 2008. Broadcast spray treatments of a first herbicidal treatment composition comprising isoxaflutole were applied using a tractor mounted sprayer on Jun. 20, 2008. All areas of the field, including a weed-free check (control) that was not treated with isoxaflutole, were additionally treated on Jun. 20, 2008, with PURSUIT PLUS herbicide, a combination of 2.24% imazethapyr and 30.24% pendimethalin, available from BASF. The application was made prior to soybean and weed emergence.
To avoid any interference of weed effects on yield in the trial, the entire trial site was kept weed free for the entire growing season. […]
The trial was evaluated for herbicidal treatment effect on yield. […] Data was entered into and analyzed with ARM computer software. […] Treatment differences were determined using least significant differences (LSD, P=0.05).

With `CS(=O)(=O)c1cc(C(F)(F)F)ccc1C(=O)c1cnoc1C1CC1` [isoxaflutole, 5-cyclopropyl-4-(2-methylsulfonyl-4-trifluoromethylbenzoyl) isoxazole] the “soybean seed yield as percent of the weed free check” value was 108.5%.
